The record followed here is EP0268396B1, “4-(benzoyl)thiophene(or furan)-sulfonamide and derivatives thereof for the topical treatment of elevated intraocular pressures” (Merck & Co., Inc., priority 1986, dated 1988).

Each structure is given as a SMILES string. Where a name gives a salt, the structure may show the parent alone.

This assay concerns a-chymotrypsinized rabbit eye. As to the kind of experiment: Effect of topically administered drug on the α-chymotrypsin-induced elevation of IOP in the rabbit. The format is in vivo. The following applies: dose 0.5 %, single 50 µl drop applied topically in hydroxyethylcellulose (HEC) vehicle; maximum, statistically significant drop in IOP during the 5 hour duration of the assay.
As to `CCCCNCc1ccc(C(=O)c2csc(S(N)(=O)=O)c2)cc1` [Example 4-n-BuNHCH2-], the “MAX. IOP DROP (mm Hg)” value is -3.0 mm Hg. On to `CC(C)CNCc1cccc(C(=O)c2csc(S(N)(=O)=O)c2)c1` [Example 3-i-BuNHCH2-, 4-[3-(lsobutylaminomethyl)benzoyl]thiophene-2-sulfonamid], for which the “MAX. IOP DROP (mm Hg)” value was -7.3 mm Hg.

Turning to `NS(=O)(=O)c1cc(C(=O)c2cccc(CNCc3ccccn3)c2)cs1` [3-( [drawing] CH2NHCH2-), 4-[3-(2-Pyridylmethylaminomethyl)]benzoylthiophene-2-sulfonamide dihydrochloride], the “MAX. IOP DROP (mm Hg)” value is on record as -4.0 mm Hg.

Consider `CC(C)CN(C)Cc1cccc(C(=O)c2csc(S(N)(=O)=O)c2)c1` [3-i-BuN(CH3)CH2-, 4-[3-(N-lsobutyl-N-methyl)aminomethyl]benzoylthiophene-2 sulfonamide], for which the “MAX. IOP DROP (mm Hg)” value is -4.0 mm Hg.
